Data taken from the supplement of paper PMC10307832.

Key:
Experiment in all cases: relative viability (nuclei count vs DMSO), 5 days (fraction); higher = more cells survive
[1] = compound: C[C@@]1(C(=O)Nc2ccc(F)nc2)CCCN1c1nc(Nc2cc(C3CC3)n[nH]2)c2cccn2n1 + O=C(c1cc(Cc2n[nH]c(=O)c3ccccc23)ccc1F)N1CCN(C(=O)C2CC2)CC1 [Olaparib] (partner 8 µM)
Outline: (§1)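 Lung cancer cell lines in 1536-well plates were dosed by pin tool the day after seeding, either with one drug alone or with a fixed anchor-drug dose plus five library-drug doses (not always all listed) in √10 steps. After 5 days, cells were fixed and their nuclei stained in one step (final 0.05% Triton X-100, 1% formaldehyde, 1 ug/ml Hoechst), then counted on 4× images. Relative viability is the nuclei count in treated wells divided by that in vehicle wells. Values are medians of duplicate plates.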

[2] = compound: C[C@@]1(C(=O)Nc2ccc(F)nc2)CCCN1c1nc(Nc2cc(C3CC3)n[nH]2)c2cccn2n1 + CC(=O)c1c(C)c2cnc(Nc3ccc(N4CCNCC4)cn3)nc2n(C2CCCC2)c1=O [Palbociclib] (partner 0.5 µM)
Outline: as §1

Motesanib + Palbociclib = compound: CC1(C)CNc2cc(NC(=O)c3cccnc3NCc3ccncc3)ccc21 [Motesanib] + CC(=O)c1c(C)c2cnc(Nc3ccc(N4CCNCC4)cn3)nc2n(C2CCCC2)c1=O [Palbociclib] (partner 0.5 µM)
Outline: as §1

[3] = compound: C[C@@]1(C(=O)Nc2ccc(F)nc2)CCCN1c1nc(Nc2cc(C3CC3)n[nH]2)c2cccn2n1 + CS(=O)(=O)N1CCN(Cc2cc3nc(-c4cccc5[nH]ncc45)nc(N4CCOCC4)c3s2)CC1 [Pictilisib] (partner 1 µM)
Outline: as §1

Cell Line	relative viability ([1]; first compound 0.04 µM)	relative viability ([1]; first compound 0.1265 µM)	relative viability ([1]; first compound 0.4 µM)	relative viability ([1]; first compound 1.265 µM)	relative viability ([2]; first compound 0.04 µM)	relative viability ([2]; first compound 0.1265 µM)	relative viability ([2]; first compound 0.4 µM)	relative viability ([2]; first compound 1.265 µM)	relative viability (Motesanib + Palbociclib; first compound 0.01 µM)	relative viability (Motesanib + Palbociclib; first compound 0.03162 µM)	relative viability (Motesanib + Palbociclib; first compound 0.1 µM)	relative viability (Motesanib + Palbociclib; first compound 0.3162 µM)	relative viability (Motesanib + Palbociclib; first compound 1 µM)	relative viability ([3]; first compound 0.04 µM)	relative viability ([3]; first compound 0.1265 µM)	relative viability ([3]; first compound 0.4 µM)	relative viability ([3]; first compound 1.265 µM)
NCI-H1915	0.266	0.257	0.242	0.257	0.534	0.507	0.52	0.551	0.541	0.522	0.545	0.508	0.575	0.948	1.04	0.894	0.863
NCI-H1944	0.413	0.394	0.362	0.492	0.272	0.237	0.251	0.294	0.352	0.328	0.334	0.302	0.326	0.29	0.323	0.283	0.316
NCI-H1975	0.653	0.749	0.626	0.476	0.564	0.521	0.374	0.452	0.53	0.508	0.507	0.565	0.617	0.226	0.211	0.188	0.197
NCI-H1993	0.926	0.88	0.492	0.662	0.461	0.465	0.27	0.49	0.675	0.622	0.752	0.626	0.553	0.906		0.803	0.812
NCI-H2009	0.718	0.657	0.726	0.663	0.221	0.258	0.162	0.212	0.273	0.246	0.276	0.246	0.264	0.824	0.765	0.653	0.717
NCI-H2023	0.456	0.422	0.333	0.122	0.255	0.22	0.174	0.209	0.365	0.378	0.361	0.385	0.401	0.197	0.129	0.118	0.146
NCI-H2085	0.827	0.748	0.711	0.819	0.485	0.455	0.439	0.443	0.512	0.488	0.471	0.465	0.474	0.487	0.46	0.469	0.495
NCI-H2087	0.593	0.483	0.369	0.482	0.218	0.188	0.177	0.181			0.26	0.232	0.26	0.896	0.783	0.792	0.7
NCI-H2126	0.67	0.643	0.575	0.76	0.353	0.309	0.342	0.359	0.333	0.35	0.341	0.347	0.412	0.456	0.392	0.394	0.436
NCI-H2170	0.568	0.556	0.488	0.601	0.362	0.396	0.369	0.371	0.397	0.382	0.388	0.377	0.397	0.243	0.212	0.188	0.243
NCI-H2228	0.767	0.503	0.426	0.32	0.694	0.425	0.463	0.498	0.664	0.8	0.589	0.937	0.613	0.216	0.175	0.198	0.246
NCI-H2347	0.536	0.569	0.48	0.524	0.405	0.415	0.386	0.436	0.452	0.428	0.404	0.469	0.437	0.595	0.6	0.516	0.776
NCI-H2405	0.808	0.611	0.598	0.511	0.47	0.303	0.391	0.402	0.511	0.499	0.535	0.562	0.52	0.391	0.357	0.37	0.296
NCI-H3122	0.633	0.571	0.581	0.723	0.158	0.183	0.171	0.185	0.186	0.194	0.213	0.217	0.161	0.479	0.374	0.479	0.393
PC-3 [JPC-3]	1.23	0.798	1.04	1.1	0.557	0.467	0.516	0.549	0.558	0.544	0.568	0.605	0.559	0.784	0.595	0.708	0.644
PC-14	0.368	0.335	0.319	0.222	0.552	0.469	0.49	0.491	0.465	0.539	0.539	0.512	0.593	0.505	0.0522	0.37	0.485
RERF-LC-KJ	0.892	0.858	0.737	0.345	1.03	0.946	0.943	0.845	1.11	0.968	1.18	1.12	1.19	0.477	0.44	0.228	0.494
SK-LU-1	0.414	0.361	0.396	0.403	0.391	0.358	0.341	0.37	0.386	0.438	0.44	0.409	0.401	0.546	0.453	0.428	0.502
SK-MES-1	0.718	0.702	0.557	0.373	0.34	0.355	0.293	0.282	0.322	0.319	0.316	0.331	0.351	0.335	0.268	0.286	0.306
SW 1573	0.38	0.409	0.341	0.253	0.342	0.262	0.294	0.304	0.321	0.385	0.498	0.38	0.444	0.438	0.251	0.377	0.455
